Patent US20220323433A2, “CLINICAL REGIMEN FOR TREATING MYELODYSPLASTIC SYNDROME WITH PHOSPHATASE INHIBITOR” (H. Lee Moffitt Cancer Center and Research Institute, Inc., priority 2016, published 2022)
Where two headings read alike, the source gives them in different places.

How the values were obtained:
del(5q) MDS = conditions: cited from earlier work; for median overall survival: long term follow up
del(5q) clones = conditions: del(5q) patients; cited from earlier work
male Fischer rats = test: Non-GLP dose ranging toxicology study in rats, daily IV infusion for 4 days; conditions: for MTD: male Fischer rats, IV daily for 4 days
Procedure: In a non-GLP dose ranging study in male Fischer rats, LB-100 was administered by daily intravenous (IV) infusion at 0.5, 0.75 and 1.5 mg/kg/day for 4 consecutive days.

beagle dogs = test: Non-GLP dose ranging study in dogs, IV every 4 days x 4 doses; format: in vivo, dog
Description: Single cell necrosis was observed throughout the gastrointestinal tract.

[1] = system: male and female beagle dogs
Procedure: In the GLP repeat dose dog study, LB-100 was administered by intravenous injection (slow bolus push) at dose levels of 0.15, 0.30, and 0.75 mg/kg daily for 5 consecutive days. […] The dosage level was reduced to 0.50 mg/kg/day for the 4th and 5th doses (study Days 3 and 4).
Multilead (I, II, III, aVR, aVL, aVF, and V2) ECGs were recorded for all animals prior to randomization (Day−8) and for all surviving animals on Day 4 (recorded approximately 2 to 4 hours following dose administration) and Day 27.
Blood pressure (systolic, diastolic, and mean arterial pressure) data were recorded for all animals once during the pretest period (Day−8) and for all surviving animals on study Day 4 (recorded approximately 2 to 4 hours following dose administration) and Day 27.

[2] = Solubility and stability of LB-100 solution; format: physicochemical; conditions: for stability: formulated in monosodium glutamate
Description: LB-100 is a water soluble enantiomeric zwitterion provided as a sterile solution for intravenous administration.
Phosphate buffered saline (PBS) was used as the vehicle for LB-100 administration in preclinical efficacy studies and sodium bicarbonate 4.2% for injection was used as the vehicle for GLP toxicity studies.

solid tumors = conditions: human, in vivo
[3] = system: male and female Sprague Dawley rats; test: GLP repeat-dose study in rats, daily IV slow bolus for 5 days; conditions: for C0 / AUClast: 0.75 mg/kg/day
[4] = MDS-003 multicenter Phase 2 trial

In the case of `Nc1cccc2c1CN(C1CCC(=O)NC1=O)C2=O` (stereo not shown) [lenalidomide], the “patients achieving a complete response (CR)” value (del(5q) MDS; MDS-003, cytogenetic response) is given as 45%, the “patients with at least a partial cytogenetic response” value (del(5q) MDS; MDS-003) is given as 73% and the “median TI duration” value (del(5q) MDS; [4]) is given as 2.2 years. The “patients achieved transfusion independence (TI)” value (del(5q) MDS; [4]) was 67%, the “patients who develop resistance” value (del(5q) MDS; after 2-3 years of treatment) was “approximately 50%” and the median overall survival (del(5q) MDS; cytogenetic non-responders) was 3.1 years. The median overall survival (del(5q) MDS; cytogenetic responders) was 4.9 years, the median overall survival (del(5q) MDS; non-responders (TI)) was 2 years and the median overall survival (del(5q) MDS; patients who reached TI) was 4.3 years. The “median duration of TI” value (del(5q) MDS; patients with PP2Acα suppression from baseline, not reached) was ≥ 1507 days, the “median duration of responses” value (del(5q) MDS; patients with del5q MDS) was 2.5 years and the “median duration of TI” value (del(5q) MDS; patients without PP2Acα suppression (P=0.006, log rank)) was 679 days. For the same compound, the “apoptosis and cell cycle arrest” value (del(5q) clones) was “induces apoptosis and cell cycle arrest”.

With `CN1CCN(C(=O)C2C(C(=O)O)[C@H]3CC[C@@H]2O3)CC1` (mixture of isomers) [LB-100, 3-{4methylpiperazine-carbonyl}-7-oxalobicyclo[2.2.1]heptane-2-carboxylic acid] the nephrosis severity (male Fischer rats; 0.75 mg/kg/day) was “mild”, the “no-observed-adverse-effect-level (NOAEL)” value (male Fischer rats; 0.5, 0.75 and 1.5 mg/kg/day IV for 4 days) was “not established” and the heart toxicity (male Fischer rats; 0.75 and 1.5 mg/kg/day groups) was “epicardial hyperplasia with inflammation primarily on the epicardium of the atria”. For the same compound, the unscheduled deaths (male Fischer rats; any of the treatment groups (0.5, 0.75, 1.5 mg/kg/day)) was “no unscheduled deaths”, the MTD (male Fischer rats) was 0.75 mg/kg/day and the MTD (male Fischer rats; surface area equivalent) was “about 4.5 mg/m^2”. The dose-limiting toxicities (male Fischer rats; rat, in vivo, iv) was “Kidney, heart, femoral bone, liver and urinary bladder toxicity”, the survival (beagle dogs; 0.1, 0.25, 0.5, 1.0 mg/kg) was “no LB-100-related effects on survival” and the “no observed-effect level (NOEL)” value (beagle dogs; beagle dogs, IV every 4 days x 4 doses) was 0.25 mg/kg. For the same compound, the signs of toxicity (beagle dogs; dog, in vivo, 1 mg/kg) was “almost no signs of toxicity”, the tolerability ([1]; 0.15 mg/kg/day) was “well tolerated” and the test article-related lethality ([1]; 0.75 mg/kg/day group, prior to fourth dose) was 2 of 10. The “Highest Non-Severely Toxic Dose (HNSTD)” value ([1]; beagle dogs, IV daily for 5 consecutive days) was 0.15 mg/kg, the ECGs ([1]; dog, in vivo) was “within normal limits” and the blood pressure ([1]; dog, in vivo) was “unaffected”. The “hematology or coagulation parameters” value ([1]; dog, in vivo) was “no residual effects”, the urinalysis parameters ([1]; dog, in vivo) was “no test article-related changes” and the water solubility [2] was “water soluble”. For the same compound, the stability ([2]; pH 10.5, at refrigerated temperatures) was “at least 8 hours”, the stability ([2]; pH 10.5, at −20° C.) was “stable for months” and the “racemization of separated enantiomers” value ([2]; in solution) was “racemize rapidly in solution”. The “cardiac or myelosuppressive toxicities” value (solid tumors) was “no cardiac or myelosuppressive toxicities observed”, the dose limiting toxicities (solid tumors) was “no dose limiting toxicities” and the “plasma concentrations of LB-100” value (solid tumors) was “greater than 1 μM”. The tolerability (solid tumors) was “well tolerated”, the C0 ([3]; females, study Day 4) was 2347 ng/mL and the AUClast ([3]; males, study Day 4) was 596 ng·h/mL. The C0 ([3]; males, study Day 4) was 1804 ng/mL, the “heart findings (epicardium and subepicardium of the atrium)” value ([3]; 0.5, 0.75, 1.25 mg/kg/day males and 1.25 mg/kg/day females) was “Minimal to mild subacute inflammation” and the kidney findings ([3]; 0.75 and 1.25 mg/kg/day group males and females) was “adverse, test article-related nephrosis of the kidneys”. The “severely toxic dose in 10% of the animals (STD 10)” value ([3]; Sprague Dawley rats, IV slow bolus daily for 5 days) was 0.75 mg/kg/day, the “reversibility of effects on urinalysis parameters” value ([3]; all treatment groups) was “reversible” and the AUClast ([3]; female, Sprague Dawley, rat, in vivo, iv) was 691 ng·h/mL.
